# Laboratory results from patent US20100041089A1, “IMPROVED METHOD FOR DETECTING CHEMICAL […]” (priority 2006, published 2010).
# Tested on: yeast genes (expressed mRNA)
# Experiment: DNA chip measurement of expressed mRNA of yeast genes after culture with a toxic chemical substance
# Assay type: cell-based, Saccharomyces cerevisiae S288C
# Method: Yeast (Saccharomyces cerevisiae S288C (a SUC2mal mel gap2 CUP1)) were cultured at 25° C. on YPD medium (yeast extract 1%, polypeptone 2%, glucose 2%). One of toxic chemical substances was added to the cell at logarithmic growth phase, and the cell was further cultured for two hours. Cell was cultured without any chemical substance in the same condition, and was used as a control. Concentrations of the chemical substances were defined to inhibit the growth of the yeast but not lead to death.
# After the completion of cultivation, the culture was centrifuged to collect the cells. To the cells, sodium acetate buffer (50 mM sodium acetate, 10 mM EDTA, 1% SDS) was added, and the mixture was shaken at 65° C. for five minutes, followed by returning to room temperature, and obtaining the supernatant, which procedure was repeated two times. To the supernatant, ½ amount of a solution of phenol/chloroform (1:1) was added, and the mixture was centrifuged to give a supernatant, an equal amount of chloroform was added, and the mixture was centrifuged to give a supernatant. To the supernatant, an equal amount of isopropanol containing 0.3 M sodium acetate was added, and the mixture was allowed to stand at room temperature for 30 minutes, after which the mixture was centrifuged to give sediment of the whole RNAs. Seventy % ethanol was added to the sediment, and the mixture was again centrifuged to give sediment, which was then dried and dissolved in water. mRNA was isolated from the whole RNAs as followings. In view of the fact that a poly A chain is attached to the 3′ terminus of mRNA, a polynucleotide having a poly T structure which was immobilized on the surface of latex beads was used to trap the mRNA, and then the mRNA was washed and eluted with spine column (Oligotex-dT30<Super>mRNA Purification Kit, Takara). Reverse transcription of the mRNA was conducted with a reverse transcriptase (Super Script II Reverse Transcriptase; catalogue No. 18064-014, GibcoBRL) using fluorescence-labeled nucleotides to give cDNAs that were introduced with Cy3-dUTP or Cy5-dUTP during the reverse transcription.
# The labeled cDNAs were dissolved in TE buffer (10 mM Tris-HCl/1 mM EDTA, pH 8.0), and the solution was dropped on the DNA chip containing the whole genes of yeast (DNA Chip Research Inc. Japan) so that the cDNAs were hybridized on the DNA chip at 65° C. for over 12 hours. The fluoresces intensity of the DNA chip was read with a scanner, and the ratio relative to the fluorescence intensity resulting from the absence of chemical substance was estimated as the following, which is shown in Tables 1 to 9.
# In the Tables, “Intensity” indicated in the rightmost column is a value of the level of expressed mRNA of each gene in control cells as divided by the average level of the expressions of the whole genes. A gene of which mRNA level is lower in control, and is higher in cases of addition of chemical substance, is especially useful in the detection of toxic substances.
# Here, when a ratio of an amount of mRNA expressed in the presence of the chemical substance to an amount of mRNA expressed in the absence of the chemical substance is two or more, then it is considered significant.
structure (smiles),measurement,setting,value
"CCCCCCCCCCCCOS(=O)(=O)[O-].[Na+] [(18), Sodium lauryl sulfate]",The level of expressed mRNA in the presence of chemical substance/The level of expressed mRNA in the absence of chemical substance,"yeast gene YFL032W, cultured two hours with substance",0.8
same,The level of expressed mRNA in the presence of chemical substance/The level of expressed mRNA in the absence of chemical substance,"yeast gene YFR046C, cultured two hours with substance",1.2
same,The level of expressed mRNA in the presence of chemical substance/The level of expressed mRNA in the absence of chemical substance,yeast gene YGL006W (transport facilitation protein gene),4.1
same,The level of expressed mRNA in the presence of chemical substance/The level of expressed mRNA in the absence of chemical substance,"yeast gene YGL037C, cultured two hours with substance",2.6
same,The level of expressed mRNA in the presence of chemical substance/The level of expressed mRNA in the absence of chemical substance,"yeast gene YGL047W, cultured two hours with substance",1.2
same,The level of expressed mRNA in the presence of chemical substance/The level of expressed mRNA in the absence of chemical substance,"yeast gene YGL053W, cultured two hours with substance",3.7
same,The level of expressed mRNA in the presence of chemical substance/The level of expressed mRNA in the absence of chemical substance,"yeast gene YGL121C, cultured two hours with substance",3.5
same,The level of expressed mRNA in the presence of chemical substance/The level of expressed mRNA in the absence of chemical substance,"yeast gene YGL136C, cultured two hours with substance",1.1
same,The level of expressed mRNA in the presence of chemical substance/The level of expressed mRNA in the absence of chemical substance,"yeast gene YGL199C, cultured two hours with substance",1.0
same,The level of expressed mRNA in the presence of chemical substance/The level of expressed mRNA in the absence of chemical substance,"yeast gene YGR008C, cultured for two hours with substance",4.2
same,The level of expressed mRNA in the presence of chemical substance/The level of expressed mRNA in the absence of chemical substance,"yeast gene YGR026W, cultured two hours with the chemical substance",1.2
same,The level of expressed mRNA in the presence of chemical substance/The level of expressed mRNA in the absence of chemical substance,"yeast gene YGR035C, cultured two hours with substance",4.3
same,The level of expressed mRNA in the presence of chemical substance/The level of expressed mRNA in the absence of chemical substance,"yeast gene YGR101W, cultured two hours with substance",1.1
same,The level of expressed mRNA in the presence of chemical substance/The level of expressed mRNA in the absence of chemical substance,"yeast gene YGR110W, cultured two hours with substance",2.1
same,The level of expressed mRNA in the presence of chemical substance/The level of expressed mRNA in the absence of chemical substance,"yeast gene YGR130C, cultured two hours with substance",1.6
same,The level of expressed mRNA in the presence of chemical substance/The level of expressed mRNA in the absence of chemical substance,"yeast gene YGR154C, cultured two hours with substance",1.2
same,The level of expressed mRNA in the presence of chemical substance/The level of expressed mRNA in the absence of chemical substance,yeast gene YGR213C,8.5
same,The level of expressed mRNA in the presence of chemical substance/The level of expressed mRNA in the absence of chemical substance,"yeast gene YGR221C, cultured two hours with substance",1.3
same,The level of expressed mRNA in the presence of chemical substance/The level of expressed mRNA in the absence of chemical substance,"yeast gene YGR244C, cultured for two hours with substance",3.1
same,The level of expressed mRNA in the presence of chemical substance/The level of expressed mRNA in the absence of chemical substance,"yeast gene YHR029C, cultured two hours with substance",2.1
same,The level of expressed mRNA in the presence of chemical substance/The level of expressed mRNA in the absence of chemical substance,"yeast gene YHR138C, cultured two hours with substance",7.1
same,The level of expressed mRNA in the presence of chemical substance/The level of expressed mRNA in the absence of chemical substance,"yeast gene YHR199C, cultured two hours with substance",0.9
same,The level of expressed mRNA in the presence of chemical substance/The level of expressed mRNA in the absence of chemical substance,"yeast gene YIL023C, cultured two hours with substance",1.0
same,The level of expressed mRNA in the presence of chemical substance/The level of expressed mRNA in the absence of chemical substance,"yeast gene YIL024C, cultured two hours with substance",1.0
same,The level of expressed mRNA in the presence of chemical substance/The level of expressed mRNA in the absence of chemical substance,"yeast gene YIL041W, cultured two hours with substance",1.1
same,The level of expressed mRNA in the presence of chemical substance/The level of expressed mRNA in the absence of chemical substance,"yeast gene YIL087C, cultured two hours with substance",1.6
same,The level of expressed mRNA in the presence of chemical substance/The level of expressed mRNA in the absence of chemical substance,"yeast gene YIL117C, cultured two hours with substance",2.6
same,The level of expressed mRNA in the presence of chemical substance/The level of expressed mRNA in the absence of chemical substance,"yeast gene YJL057C, cultured two hours with substance",1.5
same,The level of expressed mRNA in the presence of chemical substance/The level of expressed mRNA in the absence of chemical substance,"yeast gene YJL066C, cultured two hours with substance",1.5
same,The level of expressed mRNA in the presence of chemical substance/The level of expressed mRNA in the absence of chemical substance,"yeast gene YJL082W, cultured two hours with substance",0.3
same,The level of expressed mRNA in the presence of chemical substance/The level of expressed mRNA in the absence of chemical substance,"yeast gene YJL108C, cultured two hours with substance",0.9
same,The level of expressed mRNA in the presence of chemical substance/The level of expressed mRNA in the absence of chemical substance,"yeast gene YJL149W, cultured two hours with substance",1.2
same,The level of expressed mRNA in the presence of chemical substance/The level of expressed mRNA in the absence of chemical substance,"yeast gene YJL151C, cultured two hours with substance",2.4
same,The level of expressed mRNA in the presence of chemical substance/The level of expressed mRNA in the absence of chemical substance,"yeast gene YJL152W, cultured two hours with substance",1.7
same,The level of expressed mRNA in the presence of chemical substance/The level of expressed mRNA in the absence of chemical substance,"yeast gene YJL161W, cultured two hours with substance",2.1
same,The level of expressed mRNA in the presence of chemical substance/The level of expressed mRNA in the absence of chemical substance,"yeast gene YJL166W, mitochondria-located protein gene, cultured two hours with substance",4.0
same,The level of expressed mRNA in the presence of chemical substance/The level of expressed mRNA in the absence of chemical substance,"yeast gene YJL171C, cultured two hours with substance",2.9
same,The level of expressed mRNA in the presence of chemical substance/The level of expressed mRNA in the absence of chemical substance,"yeast gene YJL186W, cultured two hours with substance",0.8
same,The level of expressed mRNA in the presence of chemical substance/The level of expressed mRNA in the absence of chemical substance,"yeast gene YJR008W, cultured two hours with substance",2.7
